Assay results as given in patent publication US11236122B2, “Triterpene amine derivatives” (DFH THERAPEUTICS, priority 2018, dated 2022).

Key:
HIV-1 clade C ZM247 = assay: CA-SP1 accumulation assay (immunoblot), clade C ZM247; format: cell-based; conditions: head prints K3016
Description: Compound evaluation was performed against a panel of HIV-1 Clade C isolates K3016, pindieC1, and ZM247. The three isolates all contain the SP1-A7V. Clade B NL4-3 was included as the […] control.
Plasmids, tissue culture and transfections. HIV-1 clade B molecular clone NL4-3 and cade C clones K3016, ZM247 were obtained from Dr. Christina Ochsenbauer, University of Alabama, USA. Both K3016 and ZM247 were constructed using viral strains from South Africa. The HIV-1 clade C molecular clone pindieC1 was obtained from Dr. Uday Ranga, JNCASR, India. This clone was constructed using an HIV strain from India. HEK-293T and TZM-bl cells were propagated in Dulbecco's modified Eagle's medium (DM4EM) containing 10% fetal bovine serum (FBS). HUT-R5 cells were propagated in RPM 1640 medium supplemented with 10% FBS. For transfections, HEK-293T cells were grown in six well plates to about 80% confluency. Cells were transfected using Lipofectamine 2000 (invitrogen, USA) following manufacturer's recommendations. For viral replication assays, HUT-R5 T-cells were transfected using DEAE dextran as described in Waheed, A. A., Ono, A., and Freed, E. O.; Methods for the study of HIV-1 assembly; Methods Mol. Biol. Clifton N.J. 485, 163-184 (2009).
Preparation of viral stocks. Virus stocks were prepared by transfecting HEK-293T cells with HIV-1 DNAs (3 μg). 24 h post-transfection, the culture medium was replaced with fresh DMEM and incubated for another 2 h. Compounds tested were maintained in the culture throughout transfection. The culture supernatant was centrifuged at 845×g for 3 min to remove cellular debris. The clarified supernatants were filtered (pore size 0.45 µm filter disc) to remove residual cellular contaminants. For determination of viral infectivity, the un-concentrated virus was used to infect TZM-bl cells. For the CA-SP1 accumulation assay, the virus was pelleted by ultra-centrifugation at 210,100×g for 1 h at 4° C. using SW41Ti rotor (Beckman Coulter, USA).
CA-SP1 accumulation assay. To measure accumulation of CA-SP1, immunoblot analysis of virus-associated proteins was performed. The virus pellet was resuspended in radioimmunoprecipitation assay (RIPA) buffer (50 mM Tris-HCl pH 8.0, 150 mM sodium chloride, 1.0% NP-40, 0.5% sodium deoxycholate, 0.1% SDS) containing 1×protease inhibitor cocktail (Roche, Germany). The viral lysates were subjected to SDS-polyacrylamide gel electrophoresis (15% gel). Proteins were transferred to polyvinylidene difluoride membranes and reacted with HIV-IgG obtained from the NIH AIDS Reagent Program (catalog no. 3957) followed by incubation with HRP-conjugated anti-human secondary antibodies (GE Healthcare, UK). The proteins were visualized by enhanced chemiluminescence (Pierce, USA) and the bands were quantified using ImageJ software (http://imagej.nih.gov/ij/).

[1] = Cytotoxicity assay CellTitre-Blue, HEK-293T; format: cell-based; conditions: human, HEK-293T cells, read-out: Cytotoxicity CC50 HEK293T
Description: Cytotoxicity assays. Cytotoxicity assays were performed using the CellTitre-Blue Cell Viability Assay kit (Promega, USA) as per manufacturer's recommendations. HEK-293T and HUT-R5 cell lines were maintained in the presence of serial dilutions of the compounds for 4 days and treated with CellTitre-Blue reagent for 4 h at 37° C. The fluorescent signals were recorded at 530/25excision and 590/35emission using BioTek microplate reader. The 50% cytotoxicity concentrations (CC50s) were determined as the compound concentrations that reduced the fluorescent signals to 50% relative to DMSO only controls.

Compound	% CA-SP1 Accumulation K3016 10 nM (HIV-1 clade C ZM247)	% CA-SP1 Accumulation K3016 100 nM (HIV-1 clade C ZM247)	CC50 at 4 days [1]
C=C(C)[C@@H]1CC[C@]2(CCNCCN3CCS(=O)(=O)CC3)CC[C@]3(C)[C@H](CC[C@@H]4[C@@]5(C)CC[C@H](OC(=O)CC(C)(C)C(=O)O)C(C)(C)[C@@H]5CC[C@]43C)[C@@H]12 [Compound 51ee, (3β)-17-[[[2-[2-(1,1-Dioxothiomorpholin-4-yl)]Ethyl]Amino]Ethyl]-28-norlup-20(29)-en-3-ol, 3-(1-Hydrogen 2,2-Dimethylbutanedioate)]	14.2%	32.6%	> 0.1 µM
C=C(C)[C@@H]1CC[C@]2(CCNCCN3CCN(S(C)(=O)=O)CC3)CC[C@]3(C)[C@H](CC[C@@H]4[C@@]5(C)CC[C@H](OC(=O)CC(C)(C)C(=O)O)C(C)(C)[C@@H]5CC[C@]43C)[C@@H]12 [Compound 51ff, (3β)-17-[2-[[2-[4-(Methylsulfonyl)piperazin-1-yl]ethyl]amino]ethyl]-28-norlup-20(29)-en-3-ol, 3-(1-Hydrogen 2,2-Dimethylbutanedioate)]	12.8%	19.1%	> 0.1 µM
C=C(C)[C@@H]1CC[C@]2(CCNCCN3CCN(Cc4ccccc4)CC3)CC[C@]3(C)[C@H](CC[C@@H]4[C@@]5(C)CC[C@H](OC(=O)CC(C)(C)C(=O)O)C(C)(C)[C@@H]5CC[C@]43C)[C@@H]12 [Compound 51hh, (3β)-17-[2-[[2-[4-(Phenylmethyl)piperazin-1-yl]ethyl]amino]ethyl]-28-norlup-20(29)-en-3-ol, 3-(1-Hydrogen 2,2-Dimethylbutanedioate)]	7.0%	27.2%	> 0.1 µM
